PMC6108835, “Target-Based Discovery of an Inhibitor of the Regulatory Phosphatase PPP1R15B” (Cell, 2018)

Columns and labels:
R15A^325–636 = target: T1, R15A^325–636 (Homo sapiens, UniProt O75807); assay: eIF2α pull down with MBP-tagged R15A; assay type: biochemical; details: Raphin1 200 μM, P-eIF2α 1 μM
T1 construct: made in house; host or cells: E. coli BL21-Gold (DE3) pLysS
Procedure: Recombinant eIF2α was produced as described in [Ito et al. (2004)] and pull down experiments were carried out as previously described ([Carrara et al., 2017]). Amylose beads (New England BioLabs) were pre-equilibrated with interaction buffer (50 mM Tris pH 7.4, 200 mM NaCl, 0.05% Tween20). 20 μL amylose beads were incubated with purified MBP-tagged R15s (200 nM), P-eIF2α (1 μM) as appropriate, plus 200 μM Raphin1, or DMSO vehicle in a total volume of 200 μL. Input samples (5%) was removed at this step, and added to 4% SDS-Laemmli sample buffer. Beads were incubated for 10 min at 4°C with 20 rpm gentle rotation. The beads were washed 5 × 1 mL with interaction buffer, transferred to a fresh tube and finally resuspended with 50 μL 4% SDS-Laemmli sample buffer. Eluded beads were boiled and then run on 4%–12% NuPAGE Bis-Tris gels (ThermoFisher Scientific). Anti-MBP HRP (New England BioLabs (#E8038); 1:5,000) (to probe for R15s) and anti-eIF2α (AbCam (#ab26197); 1:1,000) antibodies were used for immunoblotting analyses of samples.

R15B = target: T2, R15B (Homo sapiens, UniProt Q5SWA1); assay: Limited trypsin digestion of R15B; details: R15 3 μM, compound 100 μM, trypsin 5 nM, 5 min, 22°C
T2 construct: cDNAs encoding amino acids 325-636 of R15A and 340-698 of R15B were cloned into pMAL-c5x; made in house; host or cells: E. coli BL21-Gold (DE3) pLysS
Procedure: Reactions were initiated by addition of 5 nM of trypsin from bovine pancreas (Sigma-Aldrich), made up in PBS, and allowed to proceed for 5 min at 22°C, with shaking at 350 rpm. […] Proteins were visualized by staining with InstantBlue Protein Stain (Expedeon).

HeLa cells = assay: Assessment of translation rates (35S-methionine), HeLa cells; assay type: cell-based, human; details: HeLa cells
Procedure: HeLa or MEF cells (90,000 cells/mL) were plated in 12-well plates (1 mL/well). The following day cells were treated as indicated; the medium was removed, fresh medium containing compound added and incubated at 37°C for the times indicated. The time course was performed in reverse order to facilitate labeling all samples at the same time. After the treatment the cells were labeled with 100 μCi/mL ^35S-methionine (Hartmann Analytic) for 10 min at 37°C (300 μL fresh medium containing 3 μL ^35S-methionine was added to each well). Note that cells were not starved in methionine-free media before labeling with ^35S-methionine for monitoring protein synthesis. The labeled cells were then washed twice with ice-cold PBS and lysed in 120 μL Laemmli Buffer. Lysates were transferred to 1.5 mL eppendorf tubes, boiled at 95°C for 5 min, sonicated and resolved on Bolt SDS-PAGE 4%–12% Bis-Tris gels (ThermoFisher Scientific). Gels were then stained with InstantBlue (Expedeon) and after the gels had been imaged they were transferred to a 20% ethanol, 7% acetic acid, 4% glycerol solution for 10 min. This was to prevent the gels from cracking while drying. The gels were transferred to filter paper and dried using a gel dryer. The gels were then exposed to a Storage Phosphor Screen (GE Healthcare) and analyzed by phosphorimaging using a Typhoon Imager Scanner (GE Healthcare).

wild-type mice = assay: Morris water maze; assay type: in vivo, mouse; details: 2 mg/kg for 2 weeks
Procedure: Morris water maze and the following fear conditioning were performed on C57BL/6J wild-type males aged 2.5 months. Mice were treatment- and test-naive before the treatment started. Treatment with Raphin1 started two weeks before and was continued during the behavioral tests.
The water maze consisted of a white circular tank (1.50 m diameter) filled with opaque water adjusted to 21 ± 1°C. For the hidden platform task, the escape platform (10 cm diameter) was positioned 1 cm below water surface in the center of one of the pool quadrants. The walls surrounding the water maze were hung with posters and flags, which served as visual cues and were visible during all stages of 5 trainings and testing. Movement of the mice within the pool was tracked and analyzed with a computerized tracking system (ViewPoint, France). During training mice were required to locate a submerged hidden platform by using only extra-maze cues. Each mouse received five blocks of training trials over five consecutive days. […] Spatial learning performance was assessed during a probe trial 1 hr after the last session of training, and for which the target platform was removed from the pool. To evaluate the performance during training trials the latency and distance traveled to find the hidden platform were measured. […]

[1] = target: T3, R15B-PP1c holophosphatase (R15B^340-698-PP1c) (Homo sapiens, UniProt Q5SWA1); assay: Holophosphatase SPR, compounds binding to reconstituted R15B-PP1c; details: holophosphatase reconstituted on SA chip; 20°C; mean ± SD; read-out: KD, steady-state affinity for R15B-PP1c
T3 construct: cDNAs encoding amino acids 325-636 of R15A and 340-698 of R15B were cloned into pMAL-c5x; made in house; host or cells: R15B: E. coli BL21-Gold (DE3) pLysS; bio-PP1c: Sf9 insect cells (baculovirus)
Procedure: (§1) Small molecules were stored as 50 mM stock solutions in 100% DMSO. […] If necessary the concentration range was adjusted to accurately determine the KD depending on the initial results. […] This was followed by 1 min stabilization period, to wash off any unspecific binding. […] After each dilution series, the surface was regenerated using 3 M NaCl for 90 s. […] In order to be able to correct for small variations in DMSO concentration between samples, eight solvent samples ranging from 0.06 to 8% DMSO were injected every 50th cycle. The flow cell temperature was 20°C.

[2] = test system: R15B-PP1c holophosphatase (R15B^340-698-PP1c); assay: as above; parameters: species or system human; details: ratio of SPR KD values
Procedure: as §1

T1 sequence (O75807 325-636, stated change not applied): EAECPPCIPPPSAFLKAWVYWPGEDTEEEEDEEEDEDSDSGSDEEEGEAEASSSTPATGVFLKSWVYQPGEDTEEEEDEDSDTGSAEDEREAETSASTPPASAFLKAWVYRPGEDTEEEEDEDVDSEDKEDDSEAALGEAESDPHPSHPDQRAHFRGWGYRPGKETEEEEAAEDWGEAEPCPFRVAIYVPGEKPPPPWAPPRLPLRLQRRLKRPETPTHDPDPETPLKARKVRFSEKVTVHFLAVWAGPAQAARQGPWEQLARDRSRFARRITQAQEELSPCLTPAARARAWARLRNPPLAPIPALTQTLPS
T3 sequence (Q5SWA1 340-698): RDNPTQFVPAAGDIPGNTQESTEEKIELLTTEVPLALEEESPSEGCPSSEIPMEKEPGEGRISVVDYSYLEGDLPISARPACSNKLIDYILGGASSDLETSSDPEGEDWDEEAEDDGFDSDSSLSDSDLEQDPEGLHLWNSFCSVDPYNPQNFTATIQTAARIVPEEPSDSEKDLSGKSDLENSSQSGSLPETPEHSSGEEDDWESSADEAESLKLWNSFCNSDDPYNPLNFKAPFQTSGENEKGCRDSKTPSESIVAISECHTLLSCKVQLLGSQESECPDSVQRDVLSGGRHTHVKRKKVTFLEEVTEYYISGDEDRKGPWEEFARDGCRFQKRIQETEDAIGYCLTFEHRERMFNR
T3 sequence (P36873 1-322 partner limits assumed): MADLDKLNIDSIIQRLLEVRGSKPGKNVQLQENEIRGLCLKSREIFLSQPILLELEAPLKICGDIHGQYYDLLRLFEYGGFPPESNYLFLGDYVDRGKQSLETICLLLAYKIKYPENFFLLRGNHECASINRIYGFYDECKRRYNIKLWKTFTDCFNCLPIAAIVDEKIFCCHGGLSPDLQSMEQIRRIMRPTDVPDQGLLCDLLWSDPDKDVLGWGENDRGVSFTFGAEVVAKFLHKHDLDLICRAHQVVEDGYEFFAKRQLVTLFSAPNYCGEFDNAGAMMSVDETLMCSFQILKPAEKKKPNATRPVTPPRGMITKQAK
T2 sequence (Q5SWA1 340-698): as the sequence (Q5SWA1 340-698) above

[H]/N=C(\N)NN=Cc1cccc(Cl)c1Cl [Raphin1, (E)-2-(2,3-dichlorobenzylidene)hydrazine-1-carboximidamide]
Recruitment of eIF2α to R15A (R15A^325–636): no such effect
Protease sensitivity of R15B (limited proteolysis, conformational change) (R15B): protected
Protein synthesis (in words) (HeLa cells; 20 μM): persistent inhibition
Raphin1-induced eIF2α phosphorylation and translation attenuation (HeLa cells; Raphin1 10 μM in the presence of the R15A inhibitor GBZ 10 μM): persisted
Protein synthesis (in words) (HeLa cells; unstressed, 10 μM): decreased
Adverse effects on memory, Morris water maze (wild-type mice): no adverse effects
Kd [1]: 33 ± 20 nM
Selectivity in binding R15B-PP1c over R15A-PP1c [2]: ~30 fold
